Test results taken from US20240181007A1, “COMPOSITIONS AND METHODS FOR TREATING PULMONARY HYPERTENSION” (Acceleron Pharma Inc., priority 2021, published 2024).

Assays:
TAC-PH mice = assay: Transverse aortic constriction (TAC) induced PH mouse model, C57BL/6 (Example 9); format: in vivo; conditions: 10 mg/kg s.c. twice weekly for 4 weeks from day 14 after TAC, day 42, relative to TAC-PH/PBS
Source text: The effects of an ActRIIA-mFc fusion polypeptide (SEQ ID NO: 56) was examined in a mouse model of left ventricular systolic dysfunction (also referred to as HErEF) of pulmonary hypertension (PH). In this model, C57BL/6 mice underwent transverse aortic constriction (TAC) to induce left heart failure, and right heart and pulmonary remodeling. See, e.g., Xiong P Y, et al. Hypertension 2018, 71(1):34-55 and Chen Y, et al. Hypertension 2012, 59(6):1170-1178.
Twenty-six C57/B6 male mice (10 wks old) underwent TAC surgery and ten age-matched animals underwent a mock surgical procedure (Sham) at day 0. Two weeks after the surgery, TAC-PH mice were randomized into two groups. i) fourteen mice were injected subcutaneously with vehicle control (phosphate buffered saline (PBS)), twice weekly for 4 weeks starting from day 14 after surgery, “TAC-PH/PBS”: and a ii) twelve mice were injected subcutaneously with ActRIIA-mFc at a dose of 10 mg/kg twice weekly for 4 weeks starting from day 14 after TAC surgery, “TAC-PH/ActRII-mFc”. At the end of the study, echocardiography and pressure-volume catheter were performed to measure left and right ventricular remodeling and functional changes before animals were euthanized for heart and lung collection. Hearts and lungs of each mouse were weighed, fixed in 10% formalin, embedded in paraffin, and sectioned for Masson's trichrome stain to assess fibrosis.
Prior to euthanasia, in vivo cardiac function was assessed by transthoracic echocardiography (Acuson P300, 18 MHz transducer; Siemens) in conscious mice. From left ventricle (LV) short axis view, M-mode echocardiogram was acquired to measure left ventricle end diastolic diameter (LVEDD), and left ventricle end systolic diameter (LVESD). Fractional shortening (FS) was calculated from the end-diastolic diameter (EDD) and end-systolic diameter (ESD) using the following equation: FS=100%×[(EDD−ESD)/EDD]. Early diastolic filling peak velocity (E), early diastolic mitral annular velocity (E′), and isovolumetric relaxation time (IVRT) were measured from the medial or septal wall at the mitral valve level from tissue Doppler image. LV diastolic function was assessed by measuring the E/E′ ratio and IVRT. Three to five beats were averaged for each mouse measurement. Tricuspid annular plane systolic excursion (TAPSE), a parameter of global right ventricular function, was also measured.
On day 42, mice were anesthetized by an intraperitoneal injection of ketamine/xylazine (100/5 mg/kg) to evaluate left and right ventricular function by Millar pressure-volume conductance catheter. The respiration was supported by a small animal ventilator. Thoracotomy was made through 4-5 intercostal space, and the heart was exposed. A pressure-volume catheter (1.0-Fr, PVR-1035, Millar Instruments, Houston, TX, USA) was inserted into the left ventricle and right ventricle from the apex. Ventricular pressure and volume were calculated with LabChart 7 software. Stroke work, ejection fraction, maximum and minimum rate of pressure development (+dp/dtm, −dp/dtm) were derived.

Obese ZSF1-SU rats = assay: HFpEF induced PH rat model, obese ZSF1 rats challenged with semaxanib (Example 13); format: in vivo; conditions: 5 mpk s.c. twice weekly for 8 weeks from day 64 after semaxanib, relative to Obese ZSF1-SU/Veh
Protocol: The effects of an ActRIIA-mFc fusion polypeptide (SEQ ID NO: 56) was examined in a rat model of left ventricular diastolic dysfunction (also referred to as HFpEF) group 2 (subgroup 2.2) pulmonary hypertension (PH). In this model, ZSF1-Lepr^faLepr^cp/Crl rats were challenged with semaxanib (SU5416) to induce HFpEF-PH.
Twenty ZSF1 Lepr^faLepr^cp/Crl male […] (8 wks old) and ten lean rats were subcutaneously administered with a single dose of semaxanib (100 mg/kg) at day 0, and ten lean rats were included as normal control. Eight weeks after semaxanib (SU5416) treatment, twenty ZSF1 Lepr^faLepr^cp/Crl rats were randomized into two groups: i) ten rats were injected subcutaneously with vehicle control (phosphate buffered saline (PBS)), twice weekly for 8 weeks starting from day 64 after semaxanib treatment, “Obese ZSF1 Veh”; and ii) ten rats were injected subcutaneously with ActRIIA-mFc at a dose of 5 mpk twice weekly for 8 weeks starting from day 64 after semaxanib treatment, “Obese ZSF1 ActRIIA-mFc.” At the end of the study, echocardiography and pressure-volume catheter were performed to measure left and right ventricular remodeling and functional changes before animals were euthanized for heart and lung collection.
Prior to euthanization, in vivo cardiac function was assessed by transthoracic echocardiography (Acuson P300, 18 MHz linear transducer: Siemens) in lightly anesthetized rats as described. Echocardiographic assessments were conducted at week 8 (before therapy with ActRIIA-mFc or vehicle) and week 15 (after therapy) in each rat. From left ventricle short axis view, M-mode echocardiogram was acquired to measure interventricular septal thickness at end diastole (IVSd), left ventricular posterior wall thickness at end diastole (LVPWd), left ventricular end diastolic diameter (LVEDD), and left ventricular end systolic diameter (LVESD). Left ventricular mass (LVM) was assessed by the equation: 1.05 [(LVEDD+LVPTD+IVSd)^3-LVEDD^3]. Early diastolic filling peak velocity (E), early diastolic mitral annular velocity (E′), and isovolumetric relaxation time (IVRT) were measured from the medial or septal wall at the mitral valve level from tissue Doppler image. LV diastolic function was assessed by measuring the E/E′ ratio and IVRT. Pulmonary arterial acceleration time (PAAT), a parameter of right ventricular function, was measured. Tricuspid annular plane systolic excursion (TAPSE), a parameter of global right ventricular function, was also measured. RV free wall thickness (RVFWT) was measured using M-mode in a modified parasternal long-axis view through the aortic valve. Pulmonary artery acceleration time (PAAT) was measured as the time from start to peak velocity of blood flow in the lumen of the main pulmonary artery distal to the pulmonary valve as obtained from the pulse-wave doppler recording.
Sixteen weeks after semaxanib treatment, rats were anesthetized with ketamine (100 mg/kg) and xylazine (5 mg/kg) at the end of the experiment to evaluate cardiac and pulmonary hemodynamics. The respiration was supported by a small animal ventilator. Thoracotomy was made through 4-5 intercostal space, and the heart was exposed. […] Ventricular pressure and volume were calculated with LabChart 7 software. […] After finishing left ventricular measurements, the catheter was advanced to the aorta, arterial blood systolic and diastolic pressure was detected. […] Similarly, right atrial pressure was measured by moving the catheter from the right ventricle into atrium. […]

“ActRIIA-mFc: ActRIIA-mFc fusion polypeptide (SEQ ID NO: 56); extracellular domain fused to murine IgG2a Fc domain with a linker” was tested, and the “cardiac hypertrophy, heart weight/body weight (HW/BW)” value (TAC-PH mice; FIG. 15) was “significantly reduced cardiac hypertrophy”, the “fractional shortening (FS)” value (TAC-PH mice; FIG. 16) was “elevated FS” and the LV ejection fraction (TAC-PH mice; FIG. 17) was “restored LV ejection fraction”. For the same substance, the “E/E′ ratio” value (TAC-PH mice; FIG. 18) was “reduced E/E′ ratio”, the “isovolumetric relaxation time (IVRT)” value (TAC-PH mice; FIG. 19) was “reduced IVRT” and the “right ventricle free wall thickness (RVFWT)” value (TAC-PH mice; FIG. 20) was “significantly reduced elevated RVFWT”. The “tricuspid annular plane systolic excursion (TAPSE)” value (TAC-PH mice; FIG. 21) was “increased reduced TAPSE”, the RV stroke work (TAC-PH mice; FIG. 22) was “reduced elevated RV stroke work” and the “minimum rate of pressure development in RV (−dp/dTmin)” value (TAC-PH mice; FIG. 23) was “decreased increased RV−dp/dTmin”. The “lung weight (LW/TL)” value (TAC-PH mice; FIG. 24) was “decreased lung weight”, the lung fibrosis (TAC-PH mice; FIG. 25) was “significantly reduced lung fibrosis” and the PAAT (Obese ZSF1-SU rats; FIG. 56) was “significantly increased PAAT”. The “right ventricular systolic pressure (RVSP)” value (Obese ZSF1-SU rats; FIG. 57) was “significantly reduced right ventricular systolic pressure”, the RVWT (Obese ZSF1-SU rats; FIG. 58) was “significantly reduced elevated RVWT” and the TAPSE (Obese ZSF1-SU rats; FIG. 59) was “increased TAPSE”. The “Fulton index (RV/(LV+S))” value (Obese ZSF1-SU rats; FIG. 60) was “decreased Fulton index”.
